# According to PubChem BioAssay (NCI):
#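 1) Cells in 96-well plates. 2) Compound, 48 h, 5 concentrations. 3) Linear interpolation between surrounding doses. 4) Unreached endpoint = highest concentration. GI50: concentration for 50% inhibition of growth. The concentration for full growth arrest is given as TGI.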
# Columns and labels:
# Assay in all cases: NCI-60 cell line screen, 48 h
# U251 CNS = test system: U251 CNS
# UACC-257 melanoma = test system: UACC-257 melanoma
# SN12C renal = test system: SN12C renal
# NCI-H23 lung = test system: NCI-H23 lung
# UO-31 renal = test system: UO-31 renal
# HCT-15 colon = test system: HCT-15 colon
# IGROV1 ovarian = test system: IGROV1 ovarian
# NCI-H460 lung = test system: NCI-H460 lung
# SNB-75 CNS = test system: SNB-75 CNS
# SK-MEL-5 melanoma = test system: SK-MEL-5 melanoma
# MDA-MB-231 breast = test system: MDA-MB-231 breast
# MCF7 breast = test system: MCF7 breast
# SR leukemia = test system: SR leukemia
# A498 renal = test system: A498 renal
# CAKI-1 renal = test system: CAKI-1 renal
# OVCAR-8 ovarian = test system: OVCAR-8 ovarian
# RXF 393 renal = test system: RXF 393 renal
# TK-10 renal = test system: TK-10 renal
# HL-60(TB) leukemia = test system: HL-60(TB) leukemia
# OVCAR-4 ovarian = test system: OVCAR-4 ovarian
# MOLT-4 leukemia = test system: MOLT-4 leukemia
# RPMI-8226 leukemia = test system: RPMI-8226 leukemia
# HOP-92 NSCLC = test system: HOP-92 NSCLC
# PC-3 prostate = test system: PC-3 prostate
# SF-268 CNS = test system: SF-268 CNS
# OVCAR-5 ovarian = test system: OVCAR-5 ovarian
# KM12 colon = test system: KM12 colon
# BT-549 breast = test system: BT-549 breast
# SF-539 CNS = test system: SF-539 CNS
# SK-MEL-28 melanoma = test system: SK-MEL-28 melanoma
# HS 578T breast = test system: HS 578T breast
# MALME-3M melanoma = test system: MALME-3M melanoma
# HCC-2998 colon = test system: HCC-2998 colon
# HOP-62 NSCLC = test system: HOP-62 NSCLC
# SW-620 colon = test system: SW-620 colon
# HCT-116 colon = test system: HCT-116 colon
# K-562 leukemia = test system: K-562 leukemia
# T-47D breast = test system: T-47D breast
# DU-145 prostate = test system: DU-145 prostate
# 786-0 renal = test system: 786-0 renal
# SK-OV-3 ovarian = test system: SK-OV-3 ovarian
# OVCAR-3 ovarian = test system: OVCAR-3 ovarian
# SK-MEL-2 melanoma = test system: SK-MEL-2 melanoma
# NCI-H522 lung = test system: NCI-H522 lung
# CCRF-CEM leukemia = test system: CCRF-CEM leukemia
# NCI-H226 lung = test system: NCI-H226 lung
# SF-295 CNS = test system: SF-295 CNS
# SNB-19 CNS = test system: SNB-19 CNS
# A549 NSCLC = test system: A549 NSCLC
# LOX IMVI melanoma = test system: LOX IMVI melanoma
# COLO 205 colon = test system: COLO 205 colon
# ACHN renal = test system: ACHN renal
# MDA-MB-435 = test system: MDA-MB-435
# UACC-62 melanoma = test system: UACC-62 melanoma
# M14 melanoma = test system: M14 melanoma
# HT29 colon = test system: HT29 colon
compound,measurement,setting,value
Nc1[nH]c(=O)ncc1CO,GI50,U251 CNS,> 100 µM
same,TGI,U251 CNS,> 100 µM
same,GI50,UACC-257 melanoma,> 100 µM
same,TGI,UACC-257 melanoma,> 100 µM
same,GI50,SN12C renal,> 100 µM
same,TGI,SN12C renal,> 100 µM
same,GI50,NCI-H23 lung,> 100 µM
same,TGI,NCI-H23 lung,> 100 µM
same,GI50,UO-31 renal,> 100 µM
same,TGI,UO-31 renal,> 100 µM
same,GI50,HCT-15 colon,> 100 µM
same,TGI,HCT-15 colon,> 100 µM
same,GI50,IGROV1 ovarian,> 100 µM
same,TGI,IGROV1 ovarian,> 100 µM
same,GI50,NCI-H460 lung,> 100 µM
same,TGI,NCI-H460 lung,> 100 µM
same,GI50,SNB-75 CNS,> 100 µM
same,TGI,SNB-75 CNS,> 100 µM
same,GI50,SK-MEL-5 melanoma,> 100 µM
same,TGI,SK-MEL-5 melanoma,> 100 µM
same,GI50,MDA-MB-231 breast,> 100 µM
same,TGI,MDA-MB-231 breast,> 100 µM
same,GI50,MCF7 breast,> 100 µM
same,TGI,MCF7 breast,> 100 µM
same,GI50,SR leukemia,> 100 µM
same,TGI,SR leukemia,> 100 µM
same,GI50,A498 renal,> 100 µM
same,TGI,A498 renal,> 100 µM
same,GI50,CAKI-1 renal,> 100 µM
same,TGI,CAKI-1 renal,> 100 µM
same,GI50,OVCAR-8 ovarian,> 100 µM
same,TGI,OVCAR-8 ovarian,> 100 µM
same,GI50,RXF 393 renal,> 100 µM
same,TGI,RXF 393 renal,> 100 µM
same,GI50,TK-10 renal,> 100 µM
same,TGI,TK-10 renal,> 100 µM
same,GI50,HL-60(TB) leukemia,> 100 µM
same,TGI,HL-60(TB) leukemia,> 100 µM
same,GI50,OVCAR-4 ovarian,> 100 µM
same,TGI,OVCAR-4 ovarian,> 100 µM
same,GI50,MOLT-4 leukemia,> 100 µM
same,TGI,MOLT-4 leukemia,> 100 µM
same,GI50,RPMI-8226 leukemia,> 100 µM
same,TGI,RPMI-8226 leukemia,> 100 µM
same,GI50,HOP-92 NSCLC,> 100 µM
same,TGI,HOP-92 NSCLC,> 100 µM
same,GI50,PC-3 prostate,> 100 µM
same,TGI,PC-3 prostate,> 100 µM
same,GI50,SF-268 CNS,> 100 µM
same,TGI,SF-268 CNS,> 100 µM
same,GI50,OVCAR-5 ovarian,> 100 µM
same,TGI,OVCAR-5 ovarian,> 100 µM
same,GI50,KM12 colon,> 100 µM
same,TGI,KM12 colon,> 100 µM
same,GI50,BT-549 breast,> 100 µM
same,TGI,BT-549 breast,> 100 µM
same,GI50,SF-539 CNS,> 100 µM
same,TGI,SF-539 CNS,> 100 µM
same,GI50,SK-MEL-28 melanoma,> 100 µM
same,TGI,SK-MEL-28 melanoma,> 100 µM
same,GI50,HS 578T breast,> 100 µM
same,TGI,HS 578T breast,> 100 µM
same,GI50,MALME-3M melanoma,> 100 µM
same,TGI,MALME-3M melanoma,> 100 µM
same,GI50,HCC-2998 colon,> 100 µM
same,TGI,HCC-2998 colon,> 100 µM
same,GI50,HOP-62 NSCLC,> 100 µM
same,TGI,HOP-62 NSCLC,> 100 µM
same,GI50,SW-620 colon,> 100 µM
same,TGI,SW-620 colon,> 100 µM
same,GI50,HCT-116 colon,> 100 µM
same,TGI,HCT-116 colon,> 100 µM
same,GI50,K-562 leukemia,> 100 µM
same,TGI,K-562 leukemia,> 100 µM
same,GI50,T-47D breast,> 100 µM
same,TGI,T-47D breast,> 100 µM
same,GI50,DU-145 prostate,> 100 µM
same,TGI,DU-145 prostate,> 100 µM
same,GI50,786-0 renal,> 100 µM
same,TGI,786-0 renal,> 100 µM
same,GI50,SK-OV-3 ovarian,> 100 µM
same,TGI,SK-OV-3 ovarian,> 100 µM
same,GI50,OVCAR-3 ovarian,> 100 µM
same,TGI,OVCAR-3 ovarian,> 100 µM
same,GI50,SK-MEL-2 melanoma,> 100 µM
same,TGI,SK-MEL-2 melanoma,> 100 µM
same,GI50,NCI-H522 lung,> 100 µM
same,TGI,NCI-H522 lung,> 100 µM
same,GI50,CCRF-CEM leukemia,> 100 µM
same,TGI,CCRF-CEM leukemia,> 100 µM
same,GI50,NCI-H226 lung,> 100 µM
same,TGI,NCI-H226 lung,> 100 µM
same,GI50,SF-295 CNS,> 100 µM
same,TGI,SF-295 CNS,> 100 µM
same,GI50,SNB-19 CNS,> 100 µM
same,TGI,SNB-19 CNS,> 100 µM
same,GI50,A549 NSCLC,> 100 µM
same,TGI,A549 NSCLC,> 100 µM
same,GI50,LOX IMVI melanoma,> 100 µM
same,TGI,LOX IMVI melanoma,> 100 µM
same,GI50,COLO 205 colon,> 100 µM
same,TGI,COLO 205 colon,> 100 µM
same,GI50,ACHN renal,> 100 µM
same,TGI,ACHN renal,> 100 µM
same,GI50,MDA-MB-435,> 100 µM
same,TGI,MDA-MB-435,> 100 µM
same,GI50,UACC-62 melanoma,> 100 µM
same,TGI,UACC-62 melanoma,> 100 µM
same,GI50,M14 melanoma,> 100 µM
same,TGI,M14 melanoma,> 100 µM
same,GI50,HT29 colon,> 100 µM
same,TGI,HT29 colon,> 100 µM
